Test results reported in the supplement of paper PMC11061612.

Tests used:
[1] = test system: C-33-A (Cervical Carcinoma); experiment: Bliss excess, mean over the matrix (fraction); higher = more synergy
Procedure, shortened: (§1)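 Bliss excess equals the observed combination effect minus the expected value EA + EB − EA·EB, where EA and EB are the effects of each agent alone. Combination Emax is the second-highest inhibition within the matrix. Inhibition was scaled from CellTiter-Glo 2.0 luminescence, with 0 set by vehicle wells and 1 by blank wells, after 72 hours of two-drug dosing of cells plated in 1536-well plates.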

[2] = test system: SiHa (Cervical Carcinoma); experiment: as above
Procedure, shortened: as §1

[3] = test system: ES6 (Ewing's Sarcoma); experiment: as above
Procedure, shortened: as §1

[4] = test system: T84 (Colorectal Carcinoma); experiment: as above
Procedure, shortened: as §1

[5] = test system: MOLT-13 (T-Lymphoblastic Leukemia); experiment: as above
Procedure, shortened: as §1

[6] = test system: SNU-407 (Colorectal Carcinoma); experiment: as above
Procedure, shortened: as §1

[7] = test system: NCI-H596 (Other Solid Carcinomas); experiment: as above
Procedure, shortened: as §1

[8] = test system: TUR (Acute Myeloid Leukemia); experiment: as above
Procedure, shortened: as §1

[9] = test system: NCI-H1963 (Small Cell Lung Carcinoma); experiment: as above
Procedure, shortened: as §1

[10] = test system: LS-1034 (Colorectal Carcinoma); experiment: as above
Procedure, shortened: as §1

[11] = test system: MONO-MAC-6 (Acute Myeloid Leukemia); experiment: as above
Procedure, shortened: as §1

[12] = test system: SAT (Head and Neck Carcinoma); experiment: as above
Procedure, shortened: as §1

[13] = test system: SCC-4 (Oral Cavity Carcinoma); experiment: as above
Procedure, shortened: as §1

[14] = test system: OVCAR-3 (Ovarian Carcinoma); experiment: as above
Procedure, shortened: as §1

[15] = test system: KALS-1 (Glioblastoma); experiment: as above
Procedure, shortened: as §1

[16] = test system: KP-4 (Pancreatic Carcinoma); experiment: as above
Procedure, shortened: as §1

[17] = test system: BHT-101 (Thyroid Gland Carcinoma); experiment: as above
Procedure, shortened: as §1

[18] = test system: Raji (Burkitt's Lymphoma); experiment: combination Emax (second highest fraction inhibited in the dose matrix, 72 h); higher = more inhibition; extreme values may be limits of the assay
Procedure, shortened: as §1

[19] = test system: IST-MEL1 (Melanoma); experiment: as above
Procedure, shortened: as §1

[20] = test system: IA-LM (Non-Small Cell Lung Carcinoma); experiment: as above
Procedure, shortened: as §1

Compound	Bliss excess [1]	Bliss excess [2]	Bliss excess [3]	Bliss excess [4]	Bliss excess [5]	Bliss excess [6]	Bliss excess [7]	Bliss excess [8]	Bliss excess [9]	Bliss excess [10]	Bliss excess [11]	Bliss excess [12]	Bliss excess [13]	Bliss excess [14]	Bliss excess [15]	Bliss excess [16]	Bliss excess [17]	combination Emax [18]	combination Emax [19]	combination Emax [20]
NC1(C(=O)N[C@@H](CCO)c2ccc(Cl)cc2)CCN(c2ncnc3[nH]ccc23)CC1 [Capivasertib] + C[C@@H]1COCCN1C2=NC(=NC(=C2)C3(CC3)[S@](=N)(=O)C)C4=C5C=CNC5=NC=C4 [AZD6738] (first compound max 10 µM, 7x7, partner max 10 µM)	-0.065	0.0259	-0.0479	-0.111	-0.0387	-0.101	-0.0105	-0.0398	-0.0142	-0.0782	-0.0397	-0.0345	-0.109	-0.0169	-0.074	-0.0371	-0.0345	0.724	0.785	0.324
CC1(C)CCC(CN2CCN(c3ccc(C(=O)NS(=O)(=O)c4ccc(NCC5CCOCC5)c([N+](=O)[O-])c4)c(Oc4cnc5[nH]ccc5c4)c3)CC2)=C(c2ccc(Cl)cc2)C1 [Venetoclax] + Cc1cc2ncnn2cc1Nc1ncc2c(n1)n(C1CCOCC1)c(=O)n2C [AZD7648] (first compound max 1 µM, 7x7, partner max 10 µM)	-0.0032	-0.0549	-0.0359	-0.0267	0.063	0.0174	-0.0119	-0.0016	0.109	-0.0323	-0.025	-0.0171	-0.0674	-0.0259	-0.0904	-0.061	-0.0011	0.152	0.41	0.261
CN(C)CCCOc1ccc(-c2ccc3ncc4c(c3c2)n(C2CCOCC2)c(=O)n4C)cn1 [AZD0156] + C=CCn1c(=O)c2cnc(Nc3ccc(N4CCN(C)CC4)cc3)nc2n1-c1cccc(C(C)(C)O)n1 [AZD1775] (first compound max 1 µM, partner max 1 µM)	-0.0461	-0.0334	-0.0501	-0.0631	0.0227	-0.0136	0.0029	0.0088	-0.0147	-0.0318	0.0017	-0.0388	-0.0393	-0.02	0.0014	-0.0898	-0.0209	0.695	0.551	0.231
Cc1c2c(nn1C)CSCc1cc(n(C)n1)CSc1cc(c3ccccc3c1)OCCCc1c(C(=O)O)n(C)c3c-2c(Cl)ccc13 [AZD5991] + CC1(C)CCC(CN2CCN(c3ccc(C(=O)NS(=O)(=O)c4ccc(NCC5CCOCC5)c([N+](=O)[O-])c4)c(Oc4cnc5[nH]ccc5c4)c3)CC2)=C(c2ccc(Cl)cc2)C1 [Venetoclax] (first compound max 1 µM, 7x7, partner max 1 µM)	-0.006	-0.129	-0.0065	-0.0369	0.0266	0.0014	-0.0102	0.138	0.119	-0.0159	0.136	0.0101	-0.0365	-0.0103	-0.0206	-0.0563	0.0146	0.682	0.2	0.317
Cc1c2c(nn1C)CSCc1cc(n(C)n1)CSc1cc(c3ccccc3c1)OCCCc1c(C(=O)O)n(C)c3c-2c(Cl)ccc13 [AZD5991] + C[C@@H](Nc1cc(F)cc(F)c1)c1cc(C(=O)N(C)C)cc2c(=O)cc(N3CCOCC3)oc12 [AZD8186] (first compound max 1 µM, 7x7, partner max 3 µM)	-0.0463	0.0044	0.0045	–	-0.0116	-0.0139	–	0.0047	0.0155	-0.0142	0.0143	-0.0731	0.0116	0.0423	0.012	-0.0235	0.0094	0.749	0.303	0.201
COc1nnc2ccc(N3CCC(c4ccc(OCCN5CCN(C)C(=O)[C@H]5C)cc4)CC3)nn12 [AZD5153] + CN(CC[C@H](CSC1=CC=CC=C1)NC2=C(C=C(C=C2)S(=O)(=O)NC(=O)C3=CC=C(C=C3)N4CCC(CC4)[C@H](C5=CC=CC=C5C6=CC=C(C=C6)Cl)O)S(=O)(=O)C(F)(F)F)CCO [AZD4320] (first compound max 1 µM, 7x7, partner max 1 µM)	–	0.0846	–	–	0.0376	0.0156	0.0028	0.0533	0.0696	–	–	0.0464	–	0.0914	–	–	0.0367	0.579	–	–
CN(CCO)CC[C@H](CSc1ccccc1)Nc1ccc(S(=O)(=O)NC(=O)c2ccc(N3CCC([C@@H](O)c4ccccc4-c4ccc(Cl)cc4)CC3)cc2)cc1S(=O)(=O)C(F)(F)F [AZD4320] + C[C@@H]1COCCN1C2=NC(=NC(=C2)C3(CC3)[S@](=N)(=O)C)C4=C5C=CNC5=NC=C4 [AZD6738] (first compound max 1 µM, 7x7, partner max 10 µM)	-0.0158	-0.0492	0.015	-0.0344	-0.0057	-0.0568	-0.047	-0.014	0.0129	-0.037	0.0003	–	-0.0961	-0.0231	-0.0784	-0.0444	-0.0067	0.768	0.941	0.715
CCc1c2c(nc3ccc(O)cc13)-c1cc3c(c(=O)n1C2)COC(=O)[C@]3(O)CC [SN-38] + O=C(c1cc(Cc2n[nH]c(=O)c3ccccc23)ccc1F)N1CCN(C(=O)C2CC2)CC1 [Olaparib] (first compound max 0.3 µM, 7x7, partner max 10 µM)	0.0577	0.0271	0.13	-0.0279	0.0811	–	–	0.0429	0.099	0.0494	0.141	0.0387	0.0071	0.0986	0.069	0.0777	–	0.956	0.897	0.878
CN(C)CCCOc1ccc(-c2ccc3ncc4c(c3c2)n(C2CCOCC2)c(=O)n4C)cn1 [AZD0156] + O=C(c1cc(Cc2n[nH]c(=O)c3ccccc23)ccc1F)N1CCN(C(=O)C2CC2)CC1 [Olaparib] (first compound max 3 µM, partner max 3 µM)	0.0868	-0.0248	-0.005	-0.0535	0.139	-0.0122	0.0282	0.0469	–	0.0657	0.102	-0.0346	0.0057	-0.0371	-0.0235	0.0711	0.0766	0.482	0.228	0.305
CC(=O)c1c(C)c2cnc(Nc3ccc(N4CCNCC4)cn3)nc2n(C2CCCC2)c1=O [Palbociclib] + CN(CC[C@H](CSC1=CC=CC=C1)NC2=C(C=C(C=C2)S(=O)(=O)NC(=O)C3=CC=C(C=C3)N4CCC(CC4)[C@H](C5=CC=CC=C5C6=CC=C(C=C6)Cl)O)S(=O)(=O)C(F)(F)F)CCO [AZD4320] (first compound max 10 µM, 7x7, partner max 1 µM)	–	-0.044	–	–	-0.0216	-0.0556	-0.0578	-0.0635	0.0164	–	–	-0.0941	–	-0.0429	–	–	0.0064	0.455	–	–
Cc1c2c(nn1C)CSCc1cc(n(C)n1)CSc1cc(c3ccccc3c1)OCCCc1c(C(=O)O)n(C)c3c-2c(Cl)ccc13 [AZD5991] + C1CN(CCC1(C(=O)N[C@@H](CCO)C2=CC=C(C=C2)Cl)N)C3=NC=NC4=C3C=CN4 [Capivasertib] (first compound max 1 µM, 7x7, partner max 3 µM)	0.0063	–	-0.0055	-0.0185	-0.0135	0.0036	-0.0035	0.0937	0.0377	-0.0042	0.0378	-0.0072	0.0358	0.0217	0.0491	-0.005	0.0332	0.692	0.212	0.15
C[C@@H](c1ccc2nccn2c1)n1nnc2ncc(-c3cnn(C)c3)nc21 [Savolitinib] + CN(CC[C@H](CSC1=CC=CC=C1)NC2=C(C=C(C=C2)S(=O)(=O)NC(=O)C3=CC=C(C=C3)N4CCC(CC4)[C@H](C5=CC=CC=C5C6=CC=C(C=C6)Cl)O)S(=O)(=O)C(F)(F)F)CCO [AZD4320] (first compound max 1 µM, 7x7, partner max 1 µM)	–	-0.0396	–	–	-0.0166	-0.319	-0.018	-0.0188	0.0022	–	–	-0.0345	–	-0.0388	–	–	-0.0327	0.173	–	–
C=CCn1c(=O)c2cnc(Nc3ccc(N4CCN(C)CC4)cc3)nc2n1-c1cccc(C(C)(C)O)n1 [AZD1775] + C1CN(CCC1(C(=O)N[C@@H](CCO)C2=CC=C(C=C2)Cl)N)C3=NC=NC4=C3C=CN4 [Capivasertib] (first compound max 3 µM, partner max 3 µM)	-0.0323	-0.0212	–	-0.0807	0.0139	-0.027	-0.0987	0.0434	–	-0.0125	0.031	-0.0616	-0.0273	-0.025	-0.0806	-0.0806	0.0304	0.977	0.65	0.413
